Five compounds from patent US6355799B1, “Substituted benzene compounds, process for their preparation, and herbicidal and defoliant compositions containing them” (ISK Americas Incorporated, priority 1997, dated 2002) can be followed below.

Type in all cases: in vivo
Series [1] relates to large crabgrass (Digitaria sanguinalis, DIGSA). Description: Pre-emerge test, greenhouse herbicide activity screening. As to conditions: for phytotoxicity rating DIGSA: 14 days after application, rating scale 0-100. The procedure, abridged: (§1)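 Compounds in acetone were track-sprayed at 187 l/ha, 15–1000 g ai/ha, onto sandy loam pots. Pre-emerge seeds were sown one day before spraying, with surface watering afterwards. Post-emerge plants were at the 2–3 leaf stage and sprayed with 0.25% v/v non-ionic surfactant. Injury was rated 0–100 at 14 days.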

Series [2] has as its system ivyleaf morningglory (Ipomoea hederacea, IPOHE). The series is described as above. To be noted: for phytotoxicity rating IPOHE: 14 days after application, rating scale 0-100. The procedure, abridged: as §1
Series [3] concerns velvetleaf (Abutilon theophrasti, ABUTH). Described as above. To be noted: for phytotoxicity rating ABUTH: 14 days after application, rating scale 0-100. The procedure, abridged: as §1
Series [4] has as its system lambsquarters (Chenopodium album, CHEAL). Described as above. As to conditions: for phytotoxicity rating CHEAL: 14 days after application, rating scale 0-100. An outline of the steps:
as §1

Series [5] deals with barnyardgrass (Echinochloa crus-galli, ECHCG). Described as above. As to conditions: for phytotoxicity rating ECHCG: 14 days after application, rating scale 0-100. The procedure, abridged:
as §1

Series [6] relates to green foxtail (Setaria viridis, SETVI). Described as above. As to conditions: for phytotoxicity rating SETVI: 14 days after application, rating scale 0-100. The procedure, abridged: as §1
Series [7] relates to sicklepod (Cassia obtusifolia, CASOB). The series is described as above. To be noted: for phytotoxicity rating CASOB: 14 days after application, rating scale 0-100. An outline of the steps: as §1
Series [8] deals with johnsongrass (Sorghum halepense, SORHA). The series is described as above. As to conditions: for phytotoxicity rating SORHA: 14 days after application, rating scale 0-100. The procedure, abridged:
as §1

Series [9] relates to redroot pigweed (Amaranthus retroflexus, AMARE). The description is as above. To be noted: for phytotoxicity rating AMARE: 14 days after application, rating scale 0-100. An outline of the steps:
as §1

The test system of series [10] is upland rice (Oryza sp., var. Tebonnet, RICE). As to the kind of experiment: Pre-emerge test, crop safety. To be noted: for phytotoxicity rating RICE: 14 days after application, rating scale 0-100. The procedure, abridged: as §1
Series [11] deals with field corn (Zea mays L., var. Dekalb 535, CORN). As to the kind of experiment: Pre-emerge test, crop safety. To be noted: for phytotoxicity rating CORN: 14 days after application, rating scale 0-100. The procedure, abridged: as §1
Where [12] appears, read: 63 g ai/ha, phytotoxicity rating 0-100, 14 days after application.
The mark [13] stands for this setting: 250 g ai/ha, phytotoxicity rating 0-100, 14 days after application.
The mark [14] stands for this setting: 63 g ai/ha, crop damage rating 0-100, 14 days after application.
[15] abbreviates: 250 g ai/ha, crop damage rating 0-100, 14 days after application.
Where [16] appears, read: pre-emerge, rate 63 g ai/ha, phytotoxicity rating 0-100 at 14 days after application.
The mark [17] stands for this setting: pre-emerge, rate 250 g ai/ha, phytotoxicity rating 0-100 at 14 days after application.
Where [18] appears, read: crop damage, pre-emerge, rate 63 g ai/ha, phytotoxicity rating 0-100 at 14 days after application.
Setting [19] is: crop damage, pre-emerge, rate 250 g ai/ha, phytotoxicity rating 0-100 at 14 days after application.

Consider `Cn1c(C(F)(F)F)cc(=O)n(-c2ccc(Cl)cc2C(=O)c2ccccc2)c1=O` [14-57], for which the “phytotoxicity rating DIGSA” value in series [1] (pre-emerge, 63 g ai/ha) was 0; in series [1] (pre-emerge, 250 g ai/ha), 20. The “phytotoxicity rating IPOHE” value in series [2] (pre-emerge, 63 g ai/ha) came to 0; in [2] (pre-emerge, 250 g ai/ha), 0. Further, the “phytotoxicity rating ABUTH” value came out at 0 in series [3] (pre-emerge, 63 g ai/ha) and 0 in [3] (pre-emerge, 250 g ai/ha). Further, the “phytotoxicity rating CHEAL” value in [4] (pre-emerge, 63 g ai/ha) is reported as 0; in [4] (pre-emerge, 250 g ai/ha), 0. In addition, the “phytotoxicity rating ECHCG” value in series [5] (pre-emerge, 63 g ai/ha) was 0; in series [5] (pre-emerge, 250 g ai/ha), 0. Also, the “phytotoxicity rating SETVI” value in [6] (pre-emerge, 63 g ai/ha) was found to be 0; in [6] (pre-emerge, 250 g ai/ha) it was 0. For the same compound, the “phytotoxicity rating CASOB” value in series [7] (pre-emerge, 63 g ai/ha) was 0; in [7] (pre-emerge, 250 g ai/ha) it was 0. Also, the “phytotoxicity rating SORHA” value is reported as 0 in series [8] (pre-emerge, 63 g ai/ha) and 0 in series [8] (pre-emerge, 250 g ai/ha). Also, the “phytotoxicity rating AMARE” value is 0 in [9] (pre-emerge, 63 g ai/ha) and 0 in series [9] (pre-emerge, 250 g ai/ha). Further, the “phytotoxicity rating RICE” value is 0 in series [10] (pre-emerge, 63 g ai/ha) and 0 in [10] (pre-emerge, 250 g ai/ha). Besides, the “phytotoxicity rating CORN” value turned out to be 0 in series [11] (pre-emerge, 63 g ai/ha) and 0 in series [11] (pre-emerge, 250 g ai/ha).

Consider `COc1c(Cl)cc(F)c(-n2c(=O)cc(C(F)(F)F)n(C)c2=O)c1NC(=O)N(Cc1ccccc1)c1ccccc1` [Compound 3-23], for which the “Pre-emerge Herbicidal Activity DIGSA” value in series [1] (setting [12]) and in series [1] (setting [13]) was 0 throughout. The “Pre-emerge Herbicidal Activity IPOHE” value in series [2] (setting [12]) and in [2] (setting [13]) was 0 throughout. Moreover, the “Pre-emerge Herbicidal Activity ABUTH” value in series [3] (setting [12]) stood at 0; in series [3] (setting [13]), 40. Moreover, the results for the “Pre-emerge Herbicidal Activity CHEAL” value in [4] (setting [12]) and in [4] (setting [13]) were 0 and 70, respectively. Besides, the “Pre-emerge Herbicidal Activity ECHCG” value in [5] (setting [12]) and in series [5] (setting [13]) was 0 in each case. The “Pre-emerge Herbicidal Activity SETVI” value in series [6] (setting [12]) and in series [6] (setting [13]) was 0 throughout. Also, the “Pre-emerge Herbicidal Activity CASOB” value in series [7] (setting [12]) and in [7] (setting [13]) was 0 in each case. Further, the “Pre-emerge Herbicidal Activity SORHA” value in series [8] (setting [12]) and in series [8] (setting [13]) was 0 throughout. For the same compound, the “Pre-emerge Herbicidal Activity AMARE” value in series [9] (setting [12]) and in series [9] (setting [13]) was 0 in each case. Moreover, the “Pre-emerge Herbicidal Activity RICE” value in series [10] (setting [14]) and in series [10] (setting [15]) was 0 in each case. Besides, the “Pre-emerge Herbicidal Activity CORN” value in series [11] (setting [14]) and in series [11] (setting [15]) was 0 each time.

In the case of `COc1c(Cl)cc(F)c(-n2nnn(CCCF)c2=O)c1N` [Compound 5-3], the “Pre-emerge Herbicidal Activity DIGSA” value in series [1] (setting [16]) is on record as 30; in series [1] (setting [17]), 100. Also, the “Pre-emerge Herbicidal Activity IPOHE” value came out at 0 in series [2] (setting [16]) and 10 in [2] (setting [17]). Moreover, the “Pre-emerge Herbicidal Activity ABUTH” value in [3] (setting [16]) and in series [3] (setting [17]) was 100 in each case. In addition, the “Pre-emerge Herbicidal Activity CHEAL” value in series [4] (setting [16]) and in series [4] (setting [17]) was 100 throughout. Also, the “Pre-emerge Herbicidal Activity ECHCG” value in series [5] (setting [16]) worked out at 0; in series [5] (setting [17]) it was 20. For the same compound, the “Pre-emerge Herbicidal Activity SETVI” value was 70 in series [6] (setting [16]) and 100 in series [6] (setting [17]). Further, the “Pre-emerge Herbicidal Activity CASOB” value in series [7] (setting [16]) was 0; in [7] (setting [17]), 30. Besides, the results for the “Pre-emerge Herbicidal Activity SORHA” value in series [8] (setting [16]) and in series [8] (setting [17]) were 0 and 95, respectively. In addition, the “Pre-emerge Herbicidal Activity AMARE” value came to 60 in series [9] (setting [16]) and 100 in series [9] (setting [17]). In addition, the “Pre-emerge Herbicidal Activity RICE” value in series [10] (setting [18]) and in series [10] (setting [19]) was 20 in each case. The “Pre-emerge Herbicidal Activity CORN” value in series [11] (setting [18]) and in series [11] (setting [19]) was 0 each time.

As for `C#CCOc1c(Cl)cc(Cl)c(-n2nnn(CCCF)c2=O)c1N` [Compound 5-15], the “Pre-emerge Herbicidal Activity DIGSA” value in [1] (setting [16]) and in series [1] (setting [17]) was 0 each time. The “Pre-emerge Herbicidal Activity IPOHE” value in series [2] (setting [16]) and in series [2] (setting [17]) was 0 in each case. Also, the “Pre-emerge Herbicidal Activity ABUTH” value in [3] (setting [16]) and in series [3] (setting [17]) was 0 each time. In addition, the “Pre-emerge Herbicidal Activity CHEAL” value in [4] (setting [16]) and in [4] (setting [17]) was 0 in each case. Besides, the “Pre-emerge Herbicidal Activity ECHCG” value in series [5] (setting [16]) and in series [5] (setting [17]) was 0 in each case. The “Pre-emerge Herbicidal Activity SETVI” value in series [6] (setting [16]) and in series [6] (setting [17]) was 0 throughout. For the same compound, the “Pre-emerge Herbicidal Activity CASOB” value in [7] (setting [16]) and in series [7] (setting [17]) was 0 each time. Besides, the “Pre-emerge Herbicidal Activity SORHA” value in [8] (setting [16]) and in series [8] (setting [17]) was 0 each time. For the same compound, the “Pre-emerge Herbicidal Activity AMARE” value in series [9] (setting [16]) and in series [9] (setting [17]) was 0 each time. The “Pre-emerge Herbicidal Activity RICE” value in [10] (setting [18]) and in series [10] (setting [19]) was 0 each time. Besides, the “Pre-emerge Herbicidal Activity CORN” value in series [11] (setting [18]) and in series [11] (setting [19]) was 0 throughout.

For `CC(C)Oc1c(Cl)cc(Cl)c(-n2nnn(CCCF)c2=O)c1N` [Compound 5-16], the “Pre-emerge Herbicidal Activity DIGSA” value in series [1] (setting [16]) and in series [1] (setting [17]) was 0 each time. Besides, the “Pre-emerge Herbicidal Activity IPOHE” value in series [2] (setting [16]) and in series [2] (setting [17]) was 0 throughout. The “Pre-emerge Herbicidal Activity ABUTH” value in [3] (setting [16]) and in series [3] (setting [17]) was 0 throughout. Further, the “Pre-emerge Herbicidal Activity CHEAL” value in [4] (setting [16]) is listed as 0; in series [4] (setting [17]) it was 20. For the same compound, the “Pre-emerge Herbicidal Activity ECHCG” value in series [5] (setting [16]) and in series [5] (setting [17]) was 0 throughout. Moreover, the “Pre-emerge Herbicidal Activity SETVI” value in series [6] (setting [16]) and in series [6] (setting [17]) was 0 throughout. The “Pre-emerge Herbicidal Activity CASOB” value in series [7] (setting [16]) and in [7] (setting [17]) was 0 each time. The “Pre-emerge Herbicidal Activity SORHA” value in series [8] (setting [16]) and in series [8] (setting [17]) was 0 in each case. Further, the “Pre-emerge Herbicidal Activity AMARE” value in series [9] (setting [16]) and in series [9] (setting [17]) was 0 in each case. The “Pre-emerge Herbicidal Activity RICE” value in series [10] (setting [18]) and in series [10] (setting [19]) was 0 in each case. Further, the “Pre-emerge Herbicidal Activity CORN” value in series [11] (setting [18]) and in [11] (setting [19]) was 0 throughout.
